Measurements reported in PMC11640419, “New Synthetic Analogs of Natural 5Z,9Z-Dienoic Acids—Hybrid Molecules Based on Oleanolic Acid: Synthesis and Study of Antitumor Activity” (Cancers, 2024).

Assays:
[1] = Cytotoxicity assay (7-AAD, flow cytometry); type: cell-based, human; conditions: human, Jurkat cells; Jurkat, 24 h incubation
Experimental: The human cell lines Jurkat, K562, U937, and HEK293 were obtained from the European Collection of Authenticated Cell Cultures (ECACC) and subsequently cultured in accordance with established standard protocols and sterile techniques. […] Subsequently, the cells were seeded into 24-well plates at a density of 5 × 10^4 cells per well and incubated for 12 h (Jurkat, K562, U937) and 24 h (HEK293).
The viability of the cells was evaluated through the utilization of the 7-AAD (7-aminoactinomycin D) dye (eBioscience™, San Diego, CA, USA). Following a 24 h incubation period with the test substances, the cells were washed with phosphate-salt buffer (PBS) and centrifuged at 400× g for five minutes. […] Subsequently, all cell samples were subjected to analysis on a NovoCyte Penteon flow cytometer (Agilent, Santa Clara, CA, USA).

[2] = Cytotoxicity assay (7-AAD, flow cytometry); type: cell-based, human; conditions: human
Experimental: The human cell lines Jurkat, K562, U937, and HEK293 were obtained from the European Collection of Authenticated Cell Cultures (ECACC) and subsequently cultured in accordance with established standard protocols and sterile techniques. The cells were maintained in RPMI 1640 (for Jurkat, K562, and U937) or DMEM (for HEK293) medium, both of which were supplemented with […], 10% FBS (Sigma, Kanagawa, Japan), and 100 units/mL penicillin-streptomycin (Sigma). Subsequently, the cells were seeded into 24-well plates at a density of 5 × 10^4 cells per well and incubated for 12 h (Jurkat, K562, U937) and 24 h (HEK293).
The viability of the cells was evaluated through the utilization of the 7-AAD (7-aminoactinomycin D) dye (eBioscience™, San Diego, CA, USA). Following a 24 h incubation period with the test substances, the cells were washed with phosphate-salt buffer (PBS) and centrifuged at 400× g for five minutes. The precipitate was resuspended in 200 μL of flow cytometry buffer (PBS without calcium and magnesium, 2.5% FBS) and incubated with a 1 mM 7-AAD dye solution for 15 min in the dark at room temperature. Subsequently, all cell samples were subjected to analysis on a NovoCyte Penteon flow cytometer (Agilent, Santa Clara, CA, USA).

[3] = HEK293 cells, HEK293, 24 h incubation
[4] = K562 cells, K562, 24 h incubation
[5] = U937 cells, U937, 24 h incubation

Compound | CC50 at 24 h [1] | CC50 at 24 h [2, 3] | CC50 at 24 h [2, 4] | CC50 at 24 h [2, 5]
CC1(C)CC[C@]2(C(=O)O)CC[C@]3(C)C(=CC[C@@H]4[C@@]5(C)CC[C@H](O)C(C)(C)[C@@H]5CC[C@]43C)[C@@H]2C1 [Oleanoic acid, Oleanolic acid] | 199 ± 18.4 µM | 497 ± 39.8 µM | 171 ± 16.5 µM | 144 ± 14.3 µM
CC(=O)O[C@H]1CC[C@@]2(C)C(CC[C@]3(C)C2CC=C2C4CC(C)(C)CC[C@]4(C(=O)Nc4c(C)n(C)n(-c5ccccc5)c4=O)CC[C@]23C)C1(C)C (stereo partly shown) [compound 7b] | 86.5 ± 8.46 µM | 218 ± 20.7 µM | 81.3 ± 7.98 µM | 72.2 ± 7.34 µM
CC(=O)O[C@H]1CC[C@@]2(C)C(CC[C@]3(C)C2CC=C2C4CC(C)(C)CC[C@]4(C(=O)NC45CC6CC(CC(C6)C4)C5)CC[C@]23C)C1(C)C (stereo partly shown) [compound 7c] | 121 ± 11.8 µM | 366 ± 34.7 µM | 104 ± 10.6 µM | 98.9 ± 9.54 µM
CC(=O)O[C@H]1CC[C@@]2(C)C(CC[C@]3(C)C2CC=C2C4CC(C)(C)CC[C@]4(C(=O)NC(C)C45CC6CC(CC(C6)C4)C5)CC[C@]23C)C1(C)C (stereo partly shown) [compound 7d] | 120 ± 11.8 µM | 342 ± 33.8 µM | 99.9 ± 9.38 µM | 97.1 ± 8.96 µM
CC(=O)O[C@H]1CC[C@@]2(C)C(CC[C@]3(C)C2CC=C2C4CC(C)(C)CC[C@]4(C(=O)NCc4cccs4)CC[C@]23C)C1(C)C (stereo partly shown) [compound 7e] | 131 ± 12.5 µM | 438 ± 42.6 µM | 125 ± 11.9 µM | 108 ± 11 µM
CC(=O)O[C@H]1CC[C@@]2(C)C(CC[C@]3(C)C2CC=C2C4CC(C)(C)CC[C@]4(C(=O)Nc4nccs4)CC[C@]23C)C1(C)C (stereo partly shown) [compound 7f] | 152 ± 14.1 µM | 494 ± 42.2 µM | 144 ± 12.8 µM | 132 ± 12.9 µM
CC(=O)O[C@H]1CC[C@@]2(C)C(CC[C@]3(C)C2CC=C2C4CC(C)(C)CC[C@]4(C(=O)Nc4ccncc4)CC[C@]23C)C1(C)C (stereo partly shown) [compound 7g] | 143 ± 14.3 µM | 430 ± 41.9 µM | 125 ± 11.9 µM | 112 ± 12.3 µM
CC(=O)O[C@H]1CC[C@@]2(C)C(CC[C@]3(C)C2CC=C2C4CC(C)(C)CC[C@]4(C(=O)Nc4cc(C)on4)CC[C@]23C)C1(C)C (stereo partly shown) [compound 7h] | 146 ± 14 µM | 489 ± 44.8 µM | 139 ± 12.9 µM | 129 ± 11.7 µM
CC(=O)O[C@H]1CC[C@@]2(C)C(CC[C@]3(C)C2CC=C2C4CC(C)(C)CC[C@]4(C(=O)Nc4cccc5cccnc45)CC[C@]23C)C1(C)C (stereo partly shown) [compound 7i] | 153 ± 13.9 µM | 456 ± 42.7 µM | 133 ± 12.9 µM | 122 ± 12.8 µM
Cn1nccc1NC(=O)[C@]12CCC(C)(C)CC1C1=CCC3[C@@]4(C)CC[C@H](O)C(C)(C)C4CC[C@@]3(C)[C@]1(C)CC2 (stereo partly shown) [compound 8a] | 23.8 ± 2.84 µM | 110 ± 10.3 µM | 20.4 ± 2.11 µM | 19.6 ± 1.96 µM
Cc1c(NC(=O)[C@]23CCC(C)(C)CC2C2=CCC4[C@@]5(C)CC[C@H](O)C(C)(C)C5CC[C@@]4(C)[C@]2(C)CC3)c(=O)n(-c2ccccc2)n1C (stereo partly shown) [compound 8b] | 98.7 ± 9.39 µM | 267 ± 22.7 µM | 94.8 ± 9.57 µM | 85.4 ± 8.64 µM
CC1(C)CC[C@]2(C(=O)NC34CC5CC(CC(C5)C3)C4)CC[C@]3(C)C(=CCC4[C@@]5(C)CC[C@H](O)C(C)(C)C5CC[C@]43C)C2C1 (stereo partly shown) [compound 8c] | 115 ± 12.1 µM | 414 ± 39.5 µM | 94.7 ± 8.68 µM | 57.6 ± 6.49 µM
CC(NC(=O)[C@]12CCC(C)(C)CC1C1=CCC3[C@@]4(C)CC[C@H](O)C(C)(C)C4CC[C@@]3(C)[C@]1(C)CC2)C12CC3CC(CC(C3)C1)C2 (stereo partly shown) [compound 8d] | 110 ± 11.6 µM | 398 ± 37.6 µM | 93.8 ± 8.91 µM | 58.1 ± 6.26 µM
CC1(C)CC[C@]2(C(=O)NCc3cccs3)CC[C@]3(C)C(=CCC4[C@@]5(C)CC[C@H](O)C(C)(C)C5CC[C@]43C)C2C1 (stereo partly shown) [compound 8e] | 165 ± 14.2 µM | 593 ± 53.9 µM | 149 ± 12.6 µM | 122 ± 12 µM
CC1(C)CC[C@]2(C(=O)Nc3nccs3)CC[C@]3(C)C(=CCC4[C@@]5(C)CC[C@H](O)C(C)(C)C5CC[C@]43C)C2C1 (stereo partly shown) [compound 8f] | 189 ± 17.4 µM | 611 ± 57.7 µM | 168 ± 17.1 µM | 157 ± 15 µM
CC1(C)CC[C@]2(C(=O)Nc3ccncc3)CC[C@]3(C)C(=CCC4[C@@]5(C)CC[C@H](O)C(C)(C)C5CC[C@]43C)C2C1 (stereo partly shown) [compound 8g] | 160 ± 14.3 µM | 443 ± 40.3 µM | 137 ± 12.4 µM | 135 ± 12.8 µM
Cc1cc(NC(=O)[C@]23CCC(C)(C)CC2C2=CCC4[C@@]5(C)CC[C@H](O)C(C)(C)C5CC[C@@]4(C)[C@]2(C)CC3)no1 (stereo partly shown) [compound 8h] | 179 ± 17.1 µM | 598 ± 59 µM | 161 ± 16.4 µM | 155 ± 15.2 µM
CC1(C)CC[C@]2(C(=O)Nc3cccc4cccnc34)CC[C@]3(C)C(=CCC4[C@@]5(C)CC[C@H](O)C(C)(C)C5CC[C@]43C)C2C1 (stereo partly shown) [compound 8i] | 165 ± 14.3 µM | 515 ± 40.3 µM | 155 ± 12.9 µM | 142 ± 12.5 µM
Cc1c(NC(=O)[C@]23CCC(C)(C)CC2C2=CCC4[C@@]5(C)CC[C@H](OC(=O)CCC/C=C\CC/C=C\CCCC(=O)O)C(C)(C)C5CC[C@@]4(C)[C@]2(C)CC3)c(=O)n(-c2ccccc2)n1C (stereo partly shown) [compound 9b] | 6.11 ± 0.56 µM | 21.4 ± 2.33 µM | 5.76 ± 0.69 µM | 4.86 ± 0.42 µM
CC1(C)CC[C@]2(C(=O)NC34CC5CC(CC(C5)C3)C4)CC[C@]3(C)C(=CCC4[C@@]5(C)CC[C@H](OC(=O)CCC/C=C\CC/C=C\CCCC(=O)O)C(C)(C)C5CC[C@]43C)C2C1 (stereo partly shown) [compound 9c] | 54.4 ± 5.88 µM | 167 ± 15.5 µM | 49.2 ± 5.01 µM | 29.4 ± 3.18 µM
CC1(C)CC[C@]2(C(=O)NCc3cccs3)CC[C@]3(C)C(=CCC4[C@@]5(C)CC[C@H](OC(=O)CCC/C=C\CC/C=C\CCCC(=O)O)C(C)(C)C5CC[C@]43C)C2C1 (stereo partly shown) [compound 9e] | 76.3 ± 7.25 µM | 195 ± 17.9 µM | 69.8 ± 6.99 µM | 56.4 ± 5.11 µM
CC1(C)CC[C@]2(C(=O)Nc3nccs3)CC[C@]3(C)C(=CCC4[C@@]5(C)CC[C@H](OC(=O)CCC/C=C\CC/C=C\CCCC(=O)O)C(C)(C)C5CC[C@]43C)C2C1 (stereo partly shown) [compound 9f] | 96.7 ± 9.18 µM | 205 ± 19.7 µM | 84.4 ± 8.47 µM | 79.7 ± 6.78 µM
CC1(C)CC[C@]2(C(=O)Nc3ccncc3)CC[C@]3(C)C(=CCC4[C@@]5(C)CC[C@H](OC(=O)CCC/C=C\CC/C=C\CCCC(=O)O)C(C)(C)C5CC[C@]43C)C2C1 (stereo partly shown) [compound 9g] | 80.4 ± 7.86 µM | 223 ± 21.8 µM | 72.1 ± 6.39 µM | 61.2 ± 6.48 µM
Cc1cc(NC(=O)[C@]23CCC(C)(C)CC2C2=CCC4[C@@]5(C)CC[C@H](OC(=O)CCC/C=C\CC/C=C\CCCC(=O)O)C(C)(C)C5CC[C@@]4(C)[C@]2(C)CC3)no1 (stereo partly shown) [compound 9h] | 91.2 ± 8.34 µM | 213 ± 18.3 µM | 81.5 ± 7.62 µM | 72.3 ± 6.85 µM
CC1(C)CC[C@]2(C(=O)Nc3cccc4cccnc34)CC[C@]3(C)C(=CCC4[C@@]5(C)CC[C@H](OC(=O)CCC/C=C\CC/C=C\CCCC(=O)O)C(C)(C)C5CC[C@]43C)C2C1 (stereo partly shown) [compound 9i] | 84.7 ± 8.21 µM | 262 ± 22.7 µM | 77.3 ± 6.85 µM | 62.9 ± 5.91 µM
